Laboratory results as given in paper PMC12508687, “Elucidating the Role and Mechanism of Alpha‐Enolase in Senescent Amelioration via Metabolic Reprogramming” (Cell Proliferation, 2025).

Columns and labels:
Assay in all cases: microscale thermophoresis (MST)
Type in all cases: binding
pyruvate kinase M (PKM) = target: T1, pyruvate kinase M (PKM) (Homo sapiens, UniProt P14618)
T1 construct: His-tagged PKM protein

ENO1 (S254A) = target: T2, ENO1 (S254A) (Homo sapiens, UniProt P06733, S254A)
T2 construct: His-tagged ENO1 (S254A) protein

alpha-enolase (ENO1) = target: T3, alpha-enolase (ENO1) (Homo sapiens, UniProt P06733)
T3 construct: His-tagged ENO1 protein
T3 sequence (P06733 2-434): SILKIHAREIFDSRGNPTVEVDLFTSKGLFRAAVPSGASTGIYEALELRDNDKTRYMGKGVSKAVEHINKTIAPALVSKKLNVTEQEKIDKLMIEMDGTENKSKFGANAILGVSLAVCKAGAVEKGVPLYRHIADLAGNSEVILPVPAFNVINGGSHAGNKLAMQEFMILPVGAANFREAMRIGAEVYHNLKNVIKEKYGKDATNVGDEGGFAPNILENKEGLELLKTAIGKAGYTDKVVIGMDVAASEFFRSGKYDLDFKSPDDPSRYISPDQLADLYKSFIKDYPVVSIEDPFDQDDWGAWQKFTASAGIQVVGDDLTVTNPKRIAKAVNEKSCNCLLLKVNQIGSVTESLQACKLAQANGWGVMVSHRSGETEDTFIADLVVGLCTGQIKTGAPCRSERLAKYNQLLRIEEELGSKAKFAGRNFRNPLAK

T2 sequence (P06733 2-434 S254A): as the sequence (P06733 2-434) above, with S253A counted along it
T1 sequence (P14618 2-531): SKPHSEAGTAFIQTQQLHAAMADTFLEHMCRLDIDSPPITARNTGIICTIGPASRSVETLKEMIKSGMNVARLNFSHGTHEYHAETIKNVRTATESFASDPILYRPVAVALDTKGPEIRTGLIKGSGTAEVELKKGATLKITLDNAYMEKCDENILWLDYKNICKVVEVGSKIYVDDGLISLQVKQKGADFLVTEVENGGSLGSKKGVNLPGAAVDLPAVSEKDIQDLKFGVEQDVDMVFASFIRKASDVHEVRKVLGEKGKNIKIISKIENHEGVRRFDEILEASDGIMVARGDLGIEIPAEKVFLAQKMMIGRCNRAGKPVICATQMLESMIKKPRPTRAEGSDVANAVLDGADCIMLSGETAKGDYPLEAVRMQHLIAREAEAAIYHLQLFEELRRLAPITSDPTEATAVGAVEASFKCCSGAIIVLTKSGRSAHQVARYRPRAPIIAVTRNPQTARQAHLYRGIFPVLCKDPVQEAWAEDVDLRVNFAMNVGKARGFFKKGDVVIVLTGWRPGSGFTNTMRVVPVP

Which Kd (pyruvate kinase M (PKM)) does the source give for `CCOC(=O)c1nc(-c2ccc(C(F)(F)F)cc2)oc1-c1cccc(C)c1` [KB2764] here?
The Kd was 9.32 µM.

What about the Kd (ENO1 (S254A)) of the same compound?
The Kd was 240 µM.

And the Kd (alpha-enolase (ENO1))?
Its Kd is 0.0401 µM.
